# Test results: patent publication US6911221B2, “Anti-neoplastic drug” (priority 2001, dated 2005)
# Tests used:
# [1] = test system: B16 melanoma; conditions: subcutaneous transplantation; cited from earlier work
# [2] = test system: LEWIS lung cancer; conditions: subcutaneous transplantation; cited from earlier work
# [3] = test system: S180 sarcoma; conditions: subcutaneous transplantation; cited from earlier work
# [4] = test system: NK and IL-2 activity; conditions: oral; lung cancer implanted mice and normal mice; cited from earlier work
# [5] = test system: MADB106 tumor cells; assay: Pulmonary metastasis count after tail vein injection of MADB106 tumor cells, with or without β-receptor agonist MP; assay type: in vivo, Fischer rats; conditions: for effect of β-receptor agonist on number of MADB106 metastases (in words): MP injected at tumor cell inoculation
# Protocol: 3. The experimental animals were divided into a test group and a control group. The animals in the test group were fed with 0.1, 0.5, 2 g/kg body weight ACNO mixed and standard powdered rodent food to which water was added (test food), every day. The animals in the control group received the same wet food mixture without ACNO (control food) in the same amount. All animals were fed at regular times every day. To adjust animals to the feeding protocol, all rats received the wet mixture without ACNO for 3 days before each experiment. Thereafter, the animals were fed test food and control food, respectively. Rats from all groups consumed more than 95% of the food each day. Approximately 70% of it was consumed during the dark phase. Body weight of each animal was monitored twice a week during the experiment. 4. MADB106 tumor cell—MADB106 cell was obtained from a pulmonary metastasis of a mammary adenocarcinoma (MADB100) by a special incubation. 5. Induction and counting of tumor metastasis—Rats were lightly anesthetized with halothane, and then 10^5 MADB106 tumor cells were injected into their tail vein. […] Rats were anesthetized with halothane after they were fed with ACNO for 3 weeks counted from the day of tumor inoculation, and their lungs were removed and placed in Bouin solution (72% saturated picric acid solution, 23% formaldehyde [37% solution] and 5% glacial acetic acid) for 24 h. Thereafter, the lungs were washed with ethanol, and then the cell number of pulmonary metastasis were counted by two experimenters unaware of the group origin (in a blind technique), independently. The obtained data were analyzed statistically. […] healthy […] Fischer rats that were 7-8 weeks old and of 120-170 g body weight (48 females and 61 males), were randomly divided into 2 groups, an experiment group and a control group. […] Thereafter, the lungs were washed with ethanol, and then the cell number of pulmonary metastasis were counted by two experimenters unaware of the group origin (in a blind technique), independently. The obtained data were analyzed statistically.
SMILES,inhibition rate [1],inhibition rate [2],inhibition rate [3],IL-2 activity [4],NK activity [4],effect of β-receptor agonist on number of MADB106 metastases (in words) [5],effect of β-receptor agonist on number of MADB106 metastases (in words) ([5]; listed as Metaproterenol),"cell number of MADB106 metastases ([5]; control food plus MP injection, NS controls 70+14)"
"CC(C)=CCC[C@](C)(O)[C@H]1CC[C@]2(C)[C@@H]1[C@H](O)C[C@@H]1[C@@]3(C)CC[C@H](O[C@@H]4O[C@H](CO)[C@@H](O)[C@H](O)[C@H]4O[C@@H]4O[C@H](CO)[C@@H](O)[C@H](O)[C@H]4O)C(C)(C)[C@@H]3CC[C@]12C [Rg3, ginsenoside Rg3]",50-60%,50-60%,50-60%,remarkably enhance,remarkably enhance,,,
"CC(C)NCC(O)c1cc(O)cc(O)c1 (centres unmarked) [MP, Metaproterenol]",,,,,,significantly increased the cells number of metastases,significantly increased the number of metastases,255+32
